Results published in patent US12605424B2 (priority 2019, dated 2026).
Read-outs that look alike come from different tables or passages of the source.

Assays:
[1] = system: human bronchial epithelial cells (HBECs); assay type: cell-based
[2] = system: C57BL/6 mice exposed to Br2 gas; settings: mouse, in vivo
[3] = system: C57BL/6 mice exposed to Cl2, Br2 or COCl2; settings: mouse, in vivo
[4] = system: Mice having sickle cell disease exposed to chlorine; settings: mouse, in vivo
[5] = mouse, in vivo
[6] = system: Neonatal mice exposed to Cl2; settings: mouse, in vivo
[7] = system: P. aeruginosa (strain PAK); settings: mouse, in vivo
[8] = system: C57BL/6 mice exposed to COCl2; settings: mouse, in vivo
P aeruginosa = assay type: cell-based, mouse
[9] = system: C57bl/6 mice exposed to Br2; settings: mouse, in vivo
[10] = mouse, in vivo; cited from earlier work
[11] = mouse, in vivo; remark: listed apart in the source
[12] = system: Br2 (600/30) exposed neonatal mice; settings: mouse, in vivo
CFTR = CFTR (Homo sapiens, UniProt P13569); assay type: cell-based
ENaC = ENaC (Homo sapiens, UniProt P37088+P51168+P51170); assay type: cell-based
Chain of ENaC (P51168 whole entry): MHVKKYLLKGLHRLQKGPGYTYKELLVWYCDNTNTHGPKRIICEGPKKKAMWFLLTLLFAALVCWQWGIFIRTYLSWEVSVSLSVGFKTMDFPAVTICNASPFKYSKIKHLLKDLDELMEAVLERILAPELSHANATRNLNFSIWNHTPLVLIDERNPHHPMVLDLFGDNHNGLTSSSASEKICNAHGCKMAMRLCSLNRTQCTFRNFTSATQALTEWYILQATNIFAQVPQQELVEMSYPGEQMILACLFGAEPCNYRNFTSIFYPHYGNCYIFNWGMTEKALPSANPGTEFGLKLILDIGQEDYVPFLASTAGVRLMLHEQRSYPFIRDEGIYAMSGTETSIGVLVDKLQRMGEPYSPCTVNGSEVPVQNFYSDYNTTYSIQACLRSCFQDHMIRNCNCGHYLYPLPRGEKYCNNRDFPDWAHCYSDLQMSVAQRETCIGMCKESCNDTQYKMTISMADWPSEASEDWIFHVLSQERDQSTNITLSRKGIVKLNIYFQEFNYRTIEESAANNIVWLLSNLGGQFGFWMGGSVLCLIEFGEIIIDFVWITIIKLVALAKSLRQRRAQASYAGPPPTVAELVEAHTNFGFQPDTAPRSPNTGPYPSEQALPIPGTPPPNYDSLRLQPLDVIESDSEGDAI
Chain of ENaC (P51170 whole entry): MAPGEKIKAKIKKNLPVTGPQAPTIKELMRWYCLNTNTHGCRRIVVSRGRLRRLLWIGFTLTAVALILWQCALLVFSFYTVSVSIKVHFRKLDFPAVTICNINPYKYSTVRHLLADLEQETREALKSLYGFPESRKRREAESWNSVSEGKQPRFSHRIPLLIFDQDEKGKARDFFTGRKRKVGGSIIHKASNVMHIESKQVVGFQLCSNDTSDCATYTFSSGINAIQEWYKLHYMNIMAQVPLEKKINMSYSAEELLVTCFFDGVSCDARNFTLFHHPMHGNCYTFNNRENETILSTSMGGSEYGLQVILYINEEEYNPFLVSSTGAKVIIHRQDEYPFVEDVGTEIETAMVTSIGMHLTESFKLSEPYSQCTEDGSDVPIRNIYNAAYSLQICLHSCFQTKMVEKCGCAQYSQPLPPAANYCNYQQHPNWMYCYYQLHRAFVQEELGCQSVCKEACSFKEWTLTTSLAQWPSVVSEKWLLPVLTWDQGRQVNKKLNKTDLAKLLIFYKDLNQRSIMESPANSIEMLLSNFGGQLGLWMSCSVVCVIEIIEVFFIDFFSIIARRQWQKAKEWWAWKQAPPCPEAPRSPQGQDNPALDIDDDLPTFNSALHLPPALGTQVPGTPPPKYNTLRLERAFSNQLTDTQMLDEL
Chain of ENaC (P37088 whole entry): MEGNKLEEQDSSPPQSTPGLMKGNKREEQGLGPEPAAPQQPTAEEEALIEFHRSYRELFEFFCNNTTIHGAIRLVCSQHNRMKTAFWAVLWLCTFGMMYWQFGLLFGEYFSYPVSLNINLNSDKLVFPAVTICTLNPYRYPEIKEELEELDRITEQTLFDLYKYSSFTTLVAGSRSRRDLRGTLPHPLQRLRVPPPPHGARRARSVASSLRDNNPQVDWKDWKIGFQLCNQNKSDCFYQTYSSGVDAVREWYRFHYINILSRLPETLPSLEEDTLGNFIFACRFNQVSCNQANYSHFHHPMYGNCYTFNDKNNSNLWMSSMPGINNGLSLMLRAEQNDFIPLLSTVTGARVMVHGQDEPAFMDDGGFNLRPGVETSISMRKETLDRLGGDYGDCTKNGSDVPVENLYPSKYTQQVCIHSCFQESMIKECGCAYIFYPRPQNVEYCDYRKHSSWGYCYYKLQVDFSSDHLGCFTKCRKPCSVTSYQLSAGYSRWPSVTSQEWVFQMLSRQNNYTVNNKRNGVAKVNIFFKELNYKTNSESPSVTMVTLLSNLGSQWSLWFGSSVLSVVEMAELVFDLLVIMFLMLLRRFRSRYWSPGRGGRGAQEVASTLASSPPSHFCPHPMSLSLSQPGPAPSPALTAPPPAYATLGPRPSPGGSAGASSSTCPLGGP

α, β, γ-hENaC = α, β, γ-hENaC (Homo sapiens, UniProt P37088+P51168+P51170); assay type: cell-based
Chain of α, β, γ-hENaC (P51168 whole entry): as the sequence (P51168 whole entry) above
Chain of α, β, γ-hENaC (P51170 whole entry): as the sequence (P51170 whole entry) above
Chain of α, β, γ-hENaC (P37088 whole entry): as the sequence (P37088 whole entry) above

Na^+/K^+-ATPase = assay type: cell-based, human
[13] = system: 16 pS non-selective cation channel; assay type: cell-based, mouse; settings: read-out: IC50, decrease of open probability of 16 pS channel
[14] = target: 4 pS amiloride-sensitive highly Na^+ selective channel (ENaC) (Mus musculus, UniProt Q61180+Q9WU38+Q9WU39); assay type: cell-based
Chain of 4 pS amiloride-sensitive highly Na^+ selective channel (ENaC) (Q9WU38 whole entry): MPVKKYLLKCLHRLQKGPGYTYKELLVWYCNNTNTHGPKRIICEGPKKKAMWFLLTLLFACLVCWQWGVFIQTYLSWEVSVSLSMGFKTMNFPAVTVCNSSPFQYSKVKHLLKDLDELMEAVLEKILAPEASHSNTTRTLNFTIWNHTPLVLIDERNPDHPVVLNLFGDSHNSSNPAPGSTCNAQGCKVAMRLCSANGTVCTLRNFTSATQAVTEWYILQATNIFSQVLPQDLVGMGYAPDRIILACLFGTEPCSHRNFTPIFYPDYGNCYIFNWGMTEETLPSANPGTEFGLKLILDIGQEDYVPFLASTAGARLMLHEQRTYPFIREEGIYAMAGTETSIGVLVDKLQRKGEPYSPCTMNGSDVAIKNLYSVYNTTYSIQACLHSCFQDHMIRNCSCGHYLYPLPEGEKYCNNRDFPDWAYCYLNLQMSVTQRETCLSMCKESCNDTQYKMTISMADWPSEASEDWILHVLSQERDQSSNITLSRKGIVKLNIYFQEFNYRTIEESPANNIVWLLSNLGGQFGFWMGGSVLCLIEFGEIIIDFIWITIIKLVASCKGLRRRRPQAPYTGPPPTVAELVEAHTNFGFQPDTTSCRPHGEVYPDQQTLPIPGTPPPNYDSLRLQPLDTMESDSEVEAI
Chain of 4 pS amiloride-sensitive highly Na^+ selective channel (ENaC) (Q9WU39 whole entry): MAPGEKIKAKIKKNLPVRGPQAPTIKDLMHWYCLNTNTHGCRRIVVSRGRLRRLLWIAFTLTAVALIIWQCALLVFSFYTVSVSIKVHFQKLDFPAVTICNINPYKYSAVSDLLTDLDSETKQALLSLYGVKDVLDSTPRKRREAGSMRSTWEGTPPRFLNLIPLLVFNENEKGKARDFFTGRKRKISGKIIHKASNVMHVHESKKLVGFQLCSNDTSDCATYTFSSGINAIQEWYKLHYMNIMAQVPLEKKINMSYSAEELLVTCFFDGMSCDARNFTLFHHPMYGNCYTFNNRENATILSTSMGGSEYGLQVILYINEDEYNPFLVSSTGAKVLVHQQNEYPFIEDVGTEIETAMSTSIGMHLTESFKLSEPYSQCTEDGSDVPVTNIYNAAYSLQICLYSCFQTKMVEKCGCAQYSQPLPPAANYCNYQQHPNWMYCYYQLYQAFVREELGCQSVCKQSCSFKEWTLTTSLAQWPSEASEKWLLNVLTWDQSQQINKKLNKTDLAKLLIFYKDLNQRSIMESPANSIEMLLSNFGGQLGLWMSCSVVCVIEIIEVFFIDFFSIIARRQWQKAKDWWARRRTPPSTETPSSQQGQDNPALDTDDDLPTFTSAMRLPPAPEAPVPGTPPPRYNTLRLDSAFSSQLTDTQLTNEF
Chain of 4 pS amiloride-sensitive highly Na^+ selective channel (ENaC) (Q61180 whole entry): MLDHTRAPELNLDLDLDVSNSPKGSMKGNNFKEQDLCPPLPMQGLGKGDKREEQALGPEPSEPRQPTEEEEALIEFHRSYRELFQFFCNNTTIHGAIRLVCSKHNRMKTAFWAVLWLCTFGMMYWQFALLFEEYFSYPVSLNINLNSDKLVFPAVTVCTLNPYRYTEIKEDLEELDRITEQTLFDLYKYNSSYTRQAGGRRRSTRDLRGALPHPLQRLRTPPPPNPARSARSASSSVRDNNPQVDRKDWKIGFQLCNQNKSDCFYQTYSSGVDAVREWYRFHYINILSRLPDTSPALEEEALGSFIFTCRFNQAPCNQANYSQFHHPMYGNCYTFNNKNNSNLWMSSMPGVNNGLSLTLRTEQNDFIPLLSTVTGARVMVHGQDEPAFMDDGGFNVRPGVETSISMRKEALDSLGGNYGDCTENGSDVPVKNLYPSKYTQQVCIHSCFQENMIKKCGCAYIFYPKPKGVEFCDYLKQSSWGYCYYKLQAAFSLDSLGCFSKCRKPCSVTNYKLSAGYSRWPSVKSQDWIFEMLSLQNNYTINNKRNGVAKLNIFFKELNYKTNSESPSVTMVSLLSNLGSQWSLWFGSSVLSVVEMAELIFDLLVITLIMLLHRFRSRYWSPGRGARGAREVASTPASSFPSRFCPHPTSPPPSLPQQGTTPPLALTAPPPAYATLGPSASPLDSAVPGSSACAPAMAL

With `BrBr` [Br2, bromine] the “ER stress marker ATF4” value [1] was “increased” and the “ER stress marker CHOP” value [1] was “remained unaltered”.
In the case of `O=C(/C=C/c1ccccc1)NC(NC(=S)Nc1cccc2cccnc12)C(Cl)(Cl)Cl` (stereo not drawn) [salubrinal, (2E)-3-Phenyl-N-[2,2,2-trichloro-1-[[(8-quinolinylamino)thioxomethyl]amino]ethyl]2-propenamide, reference compound], the BALF elastase activity [2] is reported as “attenuated”, the BALF protein levels [2] is reported as “ameliorated” and the “BALF total cell count” value [2] is reported as “ameliorated”. The “Masson's trichrome staining of lungs (collagen, fibrotic changes)” value [2] was “decreased collagen levels and lung fibrotic changes”, the “alveolar mean linear intercept (Lm)” value [2] was “attenuated” and the “lung CHOP levels (immunoblot)” value [2] was “decrease”. For the same compound, the lung hydroxyproline levels [2] was “decreased collagen levels”, the “lung phosphorylated eIF2α (immunoblot)” value [2] was “significant increase” and the “lung volumes (PV curve), lung compliance and inspiratory capacity” value [2] was “prevented Br2-induced increase”. The plasma elastase levels [2] was “attenuated”.
With Hemopexin [Hpx] the BALF heme [3] was “attenuated”, the “BALF inflammatory cell count” value [3] was “attenuated” and the BALF protein levels [3] was “reduced”. For the same compound, the BALF proteins [3] was “attenuated”, the “mortality (Kaplan-Meier)” value [3] was “reduced mortality” and the probability of survival [4] was “higher probability of survival”. The “plasma [IgM] relative to control” value [5] was ≤ 8%, the “apical cytoplasm of the bronchial epithelium (histology)” value [6] was “exhibited some improvement” and the “cellularity of alveolar septae (histology)” value [6] was “exhibited some recovery”. The “mean linear intercept (MLI)” value [6] was “decreased MLI”, the survival [6] was “improved survival” and the “bacterial colonies from lung homogenates on agar plates” value [7] was “grew fewer bacterial colonies”. The survival [7] was “improved survival”, the BALF protein levels [8] was “reduced BALF protein levels” and the “ATF4 and CHOP, immunohistochemical staining of lung sections” value ([2]; ip) was “attenuated ATF4 and CHOP levels around airways and completely abrogated the ER stress markers in the lung parenchyma”. The BALF elastase activity ([2]; ip) was “lower”, the BALF protein levels ([2]; ip) was “significantly reduced” and the “BALF total cell count” value ([2]; ip) was “significantly reduced”. For the same compound, the “PV curve, lung compliance and inspiratory capacity” value ([2]; ip) was “prevented the shifting of the PV curve”, the “alveolar Lm” value ([2]; ip) was “reduced” and the “lung ATF4 (immunoblot)” value ([2]; ip) was “low levels”. For the same compound, the “lung CHOP (immunoblot)” value ([2]; ip) was “low levels”, the “lung collagen levels on Masson's trichrome staining” value ([2]; ip) was “significantly reduced” and the lung hydroxyproline levels ([2]; ip) was “significantly reduced”. For the same compound, the “overall mortality (Kaplan-Meier)” value ([2]; ip) was “reduced overall mortality”, the plasma elastase levels ([2]; ip) was “lower” and the plasma heme ([2]; ip) was “reduced”. For the same compound, the “bactericidal function of neutrophils (bacterial colonies on agar)” value (P aeruginosa) was “improved neutrophil function”, the “survival (Kaplan Meier)” value [9] was “improved survival” and the serum half-life [10] was “approximately 7 days”. For the same compound, the “time plasma level is maintained / remains stable” value [11] was “at least 24 h”, the “plasma bioavailability (plasma concentration)” value ([11]; im) was “about 25 μg/ml” and the mortality [12] was “not effective”. For the same compound, the systemic hypoxia [12] was “not effective”.
In the case of “heme-Hpx complex: complex of heme with hemopexin”, the serum half-life [10] is given as “approximately 7 h”.
With nitrite [reference compound] the “survival (Kaplan Meier)” value [9] was “improved survival early”.
In the case of `OCC1OC([S][Au])C(O)C(O)C1O` [ATG, gold(1+);(3R,4S,5S,6R)-3,4,5-trihydroxy-6-(hydroxymethyl) oxane-2-thiolate, reference compound], the mortality [12] is reported as “not effective” and the systemic hypoxia [12] is reported as “not effective”.
For ferric chloride heme, the “ER stress marker ATF4” value [1] was “increased”, the “ER stress marker CHOP” value [1] was “increased” and the “forskolin-stimulated, GlyH-101-inhibited CFTR currents” value (CFTR) was “inhibited amiloride-sensitive, ENaC, but not forskolin-stimulated, GlyH-101-inhibited, CFTR, currents”. For the same compound, the ENaC activity (ENaC) was “totally inhibited”, the transepithelial resistance (ENaC) was “above 1500 Ohms*cm^2” and the EC50 (ENaC; read-out: EC50, inhibition of trans-epithelial Na^+ transport across human airway cells) was 500 nM. For the same compound, the IC50 (ENaC; read-out: IC50, inhibition of amiloride-sensitive ENaC short circuit current) was ~500 nM, the “Na^+ current (whole cell)” value (α, β, γ-hENaC) was “inhibited” and the “inhibition of whole-cell Na^+ current” value (α, β, γ-hENaC; 1 µM) was 80%. The “Na^+/K^+-ATPase function (ouabain-sensitive current)” value (Na^+/K^+-ATPase) was “did not impair”, the IC50 [13] was 125 nM and the EC50 ([14]; read-out: EC50, inhibition of ENaC and cation Na^+ channels in mouse alveolar cells) was 125 nM. It also gave an IC50 ([14]; read-out: IC50, decrease of open probability of 4 pS channel) of 125 nM.
